Molecular target: T1, L-type calcium channel, the α1C subunit (Homo sapiens, UniProt Q13936)
T1 construct: expressed in transfected cells
Test: FLIPR assay of K+-stimulated calcium influx in C1-6-37-3 cells (HEK 293 stably transfected with L-type α1C channel and Kir 2.3)
Format: cell-based
Conditions: fluo-3 loaded cells, increasing potassium concentration (FIG. 4)
Description: The cell line used in this embodiment has a stably transfected L-type calcium channel, the α1C subunit. It also was transfected with the Kir 2.3 inward rectifier K channel, which allows for control of cell membrane potential through alteration of extracellular [K^+]o. Preincubation of the cells for 10 min in 30 mM [K^+]o partially depolarizes the cells.
Specifically exemplified herein is an assay to determine state-dependent drug-calcium channel interactions using a cell line that co-expresses a potassium channel (Kir2.3) that determines the resting membrane potential of the cells as a function of the external potassium ion concentration ([K]o) and a voltage gated calcium channel. Co-expressed in these cells is the L-type voltage gated calcium channel complex (alpha1C, alpha2-delta, beta2a). Potassium is used in a two step manner in this assay. First it is used to set the resting membrane potential (Vm) during antagonist incubation. […] This calcium influx is detected using a calcium sensitive dye (eg Fluo-3, Fluo4, Fura2, etc.). If the calcium influx is diminished by exposure to antagonists, this will be detected when compared to the control condition.
Hek 293 cells were stably transfected with the alpha 1C subunit of the L-type Calcium ion channel and Kir 2.3 inward K^+ rectifying channel (C1-6-37-3 cells). Calcium influx into the cells was measured in a FLIPR™ (Molecular Devices, CA). […]

T1 sequence (Q13936 whole entry): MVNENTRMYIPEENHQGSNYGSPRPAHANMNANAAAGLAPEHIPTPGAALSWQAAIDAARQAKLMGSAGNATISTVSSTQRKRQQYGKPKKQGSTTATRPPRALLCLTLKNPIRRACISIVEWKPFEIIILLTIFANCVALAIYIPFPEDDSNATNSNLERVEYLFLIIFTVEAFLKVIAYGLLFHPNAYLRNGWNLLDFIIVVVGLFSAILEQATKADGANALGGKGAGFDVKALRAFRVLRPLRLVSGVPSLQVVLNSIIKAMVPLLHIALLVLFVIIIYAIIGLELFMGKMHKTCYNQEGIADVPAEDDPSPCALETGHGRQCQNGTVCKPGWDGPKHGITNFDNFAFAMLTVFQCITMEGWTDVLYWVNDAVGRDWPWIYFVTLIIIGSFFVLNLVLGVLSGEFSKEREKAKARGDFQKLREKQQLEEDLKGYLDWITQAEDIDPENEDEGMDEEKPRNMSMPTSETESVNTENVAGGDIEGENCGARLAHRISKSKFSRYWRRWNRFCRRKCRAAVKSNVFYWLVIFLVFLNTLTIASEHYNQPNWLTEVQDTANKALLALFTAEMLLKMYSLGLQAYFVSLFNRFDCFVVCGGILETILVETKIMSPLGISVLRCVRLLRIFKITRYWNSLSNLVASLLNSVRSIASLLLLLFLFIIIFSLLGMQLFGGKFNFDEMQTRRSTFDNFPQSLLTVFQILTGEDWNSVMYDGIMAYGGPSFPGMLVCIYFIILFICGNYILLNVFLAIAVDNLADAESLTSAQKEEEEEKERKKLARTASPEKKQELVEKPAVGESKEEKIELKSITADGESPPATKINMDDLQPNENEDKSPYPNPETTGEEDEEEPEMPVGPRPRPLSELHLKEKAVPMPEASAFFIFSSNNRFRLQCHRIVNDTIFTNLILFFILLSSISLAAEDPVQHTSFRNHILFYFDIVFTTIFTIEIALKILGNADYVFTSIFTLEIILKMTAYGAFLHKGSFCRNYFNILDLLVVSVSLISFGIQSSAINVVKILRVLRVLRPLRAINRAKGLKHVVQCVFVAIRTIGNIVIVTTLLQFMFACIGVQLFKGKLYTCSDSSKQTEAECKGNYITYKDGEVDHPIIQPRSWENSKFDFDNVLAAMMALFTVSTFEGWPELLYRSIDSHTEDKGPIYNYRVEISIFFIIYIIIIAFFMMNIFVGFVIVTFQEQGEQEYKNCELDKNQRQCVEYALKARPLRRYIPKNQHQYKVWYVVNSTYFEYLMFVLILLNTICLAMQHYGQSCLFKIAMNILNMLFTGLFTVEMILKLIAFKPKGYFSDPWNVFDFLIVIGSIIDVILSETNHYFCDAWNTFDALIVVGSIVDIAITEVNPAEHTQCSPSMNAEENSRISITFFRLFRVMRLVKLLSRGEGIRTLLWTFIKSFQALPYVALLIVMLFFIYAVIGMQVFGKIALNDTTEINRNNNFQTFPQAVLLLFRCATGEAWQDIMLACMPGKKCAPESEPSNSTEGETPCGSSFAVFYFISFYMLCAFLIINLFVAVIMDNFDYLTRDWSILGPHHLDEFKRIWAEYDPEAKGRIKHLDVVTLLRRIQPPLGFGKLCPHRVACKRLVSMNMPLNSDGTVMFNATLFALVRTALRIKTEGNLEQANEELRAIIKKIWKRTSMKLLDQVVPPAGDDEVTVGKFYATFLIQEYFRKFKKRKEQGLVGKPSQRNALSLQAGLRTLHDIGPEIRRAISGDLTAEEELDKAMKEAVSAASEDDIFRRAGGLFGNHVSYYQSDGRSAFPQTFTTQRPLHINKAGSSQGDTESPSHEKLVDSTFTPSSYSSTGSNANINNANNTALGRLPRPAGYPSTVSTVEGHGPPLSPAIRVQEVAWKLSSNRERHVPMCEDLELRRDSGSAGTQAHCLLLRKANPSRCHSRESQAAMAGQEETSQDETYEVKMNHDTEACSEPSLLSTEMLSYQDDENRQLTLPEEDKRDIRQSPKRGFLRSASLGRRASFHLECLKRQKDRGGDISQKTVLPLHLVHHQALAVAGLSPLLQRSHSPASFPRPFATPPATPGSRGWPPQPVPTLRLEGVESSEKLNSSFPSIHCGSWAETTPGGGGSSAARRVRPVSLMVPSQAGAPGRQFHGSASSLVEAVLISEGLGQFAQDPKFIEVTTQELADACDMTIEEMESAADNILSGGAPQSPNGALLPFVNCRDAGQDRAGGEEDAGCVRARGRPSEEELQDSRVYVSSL
T1 sequence (P54289 25-946 partner limits assumed): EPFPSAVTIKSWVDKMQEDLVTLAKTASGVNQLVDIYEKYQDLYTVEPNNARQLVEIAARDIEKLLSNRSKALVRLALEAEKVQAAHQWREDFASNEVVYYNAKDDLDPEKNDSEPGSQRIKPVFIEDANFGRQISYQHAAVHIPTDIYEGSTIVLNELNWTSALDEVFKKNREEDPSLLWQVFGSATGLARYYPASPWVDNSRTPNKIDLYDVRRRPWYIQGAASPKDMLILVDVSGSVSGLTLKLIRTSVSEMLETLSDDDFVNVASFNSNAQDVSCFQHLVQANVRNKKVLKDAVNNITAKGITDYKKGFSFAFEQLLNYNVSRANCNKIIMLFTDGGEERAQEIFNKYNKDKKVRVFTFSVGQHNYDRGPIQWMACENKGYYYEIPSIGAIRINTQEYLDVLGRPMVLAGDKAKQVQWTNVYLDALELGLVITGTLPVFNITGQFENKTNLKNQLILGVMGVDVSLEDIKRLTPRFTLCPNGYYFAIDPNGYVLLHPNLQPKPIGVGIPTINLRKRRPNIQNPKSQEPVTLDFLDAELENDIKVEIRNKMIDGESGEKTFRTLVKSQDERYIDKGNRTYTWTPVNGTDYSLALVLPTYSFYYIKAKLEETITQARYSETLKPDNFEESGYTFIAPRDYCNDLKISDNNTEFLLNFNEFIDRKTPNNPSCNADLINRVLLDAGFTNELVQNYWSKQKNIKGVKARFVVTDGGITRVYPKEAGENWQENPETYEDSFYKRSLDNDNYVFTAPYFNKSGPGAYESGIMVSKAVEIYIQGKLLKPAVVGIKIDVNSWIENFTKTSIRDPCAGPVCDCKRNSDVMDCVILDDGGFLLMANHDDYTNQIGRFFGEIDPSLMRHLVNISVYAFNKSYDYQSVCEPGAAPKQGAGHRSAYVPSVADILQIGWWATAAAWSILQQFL
T1 sequence (P54289 947-1103 partner limits assumed): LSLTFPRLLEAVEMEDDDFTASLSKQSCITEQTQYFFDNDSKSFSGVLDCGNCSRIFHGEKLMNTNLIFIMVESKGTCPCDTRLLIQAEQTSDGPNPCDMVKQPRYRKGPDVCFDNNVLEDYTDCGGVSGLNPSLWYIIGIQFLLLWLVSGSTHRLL
T1 sequence (Q08289 whole entry partner): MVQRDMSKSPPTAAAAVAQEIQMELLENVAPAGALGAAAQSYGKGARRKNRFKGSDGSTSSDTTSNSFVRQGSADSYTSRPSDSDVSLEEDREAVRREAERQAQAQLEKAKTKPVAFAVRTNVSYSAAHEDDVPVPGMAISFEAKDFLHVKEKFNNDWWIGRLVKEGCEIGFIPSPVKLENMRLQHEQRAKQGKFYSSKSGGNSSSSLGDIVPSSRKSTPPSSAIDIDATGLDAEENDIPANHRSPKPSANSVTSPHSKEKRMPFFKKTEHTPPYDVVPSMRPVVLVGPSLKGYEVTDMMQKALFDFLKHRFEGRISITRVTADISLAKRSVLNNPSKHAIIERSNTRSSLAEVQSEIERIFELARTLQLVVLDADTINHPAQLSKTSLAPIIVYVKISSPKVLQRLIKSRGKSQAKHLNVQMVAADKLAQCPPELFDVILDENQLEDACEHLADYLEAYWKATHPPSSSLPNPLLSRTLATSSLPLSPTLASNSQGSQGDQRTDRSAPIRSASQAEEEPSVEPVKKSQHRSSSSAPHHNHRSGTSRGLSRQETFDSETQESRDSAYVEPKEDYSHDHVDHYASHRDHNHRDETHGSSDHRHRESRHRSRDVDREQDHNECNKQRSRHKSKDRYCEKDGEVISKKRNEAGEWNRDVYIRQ

SMILES: [K+] [K^+]
- EC50: 11 mM

From patent publication US20060014206A1, “Assay methods for state-dependent calcium channel agonists/antagonists” (priority 2002, published 2006)
